Experimental findings from patent publication US20110152094A1, “Herbicidal compositions comprising flufenacet” (Bayer CropScience AG, priority 2009, published 2011) are described below.

Common to all, as to type: in vivo
Data set [1] relates to ALOMY sensitive (Alopecurus myosuroides). Kind of data set: Greenhouse trial, PE application on resistant biotypes (test method 8). To be noted: sensitive biotype, g of AS/ha: (A) 90, (B) 1200, (A)+(B) 90 + 1200. The protocol:
(§1) In the standard design of the test, seeds of various broad-leaved weed and weed grass biotypes (origins) were sown in a 8-13 cm diameter pot filled with natural soil of a standard field soil (loamy silt; non-sterile) and covered with a covering soil layer of about 1 cm. The pots were then cultivated in a greenhouse (12-16 h of light, temperature day 20-22° C., night 15-18° C.) until the time of application. The pots were treated on a laboratory track sprayer with spray liquors comprising the compositions according to the invention, mixtures of the prior art or components used individually. Application of the active compounds or active compound combinations formulated as WG, WP, EC or otherwise was carried out at the appropriate growth stages of the plants. The application rate for the spray application was 100-600 l of water/ha. After the treatment, the plants were returned to the greenhouses.
(§2) About 3 weeks after the application, the soil action or/and foliar action was assessed visually according to a scale of 0-100% in comparison to an untreated comparative group: 0%=no noticeable effect compared to the untreated comparative group; 100%=full effect compared to the untreated comparative group.
(§3) (notes: the term “seeds” also includes vegetative propagation forms such as, for example, rhizome pieces; abbreviations used: h light=hours of illumination, g of AS/ha=gram of active substance per hectare, l/ha=liter per hectare, S=sensitive, R=resistant) • 1. Pre-emergence action against weeds: seeds of various broad-leaved weed and weed grass biotypes (origins) were sown in a 8-13 cm diameter pot filled with natural soil of a standard field soil (loamy silt; non-sterile) and covered with a covering soil layer of about 1 cm. The pots were then cultivated in a greenhouse (12-16 h of light, temperature day 20-22° C., night 15-18° C.) until the time of application. The pots were treated at the BBCH stage 00-10 of the seeds/plants on a laboratory track sprayer with spray liquors comprising the compositions according to the invention, mixtures or components used individually, as WG, WP, EC or other formulations. The application rate for the spray application was 100-600 l of water/ha. After the treatment, the plants were returned to the greenhouses and, when required, treated with fertilizer and watered. • 2. Post-emergence action against weeds: seeds of various broad-leaved weed and weed grass biotypes (origins) were sown in a 8-13 cm diameter pot filled with natural soil of a standard field soil (loamy silt; non-sterile) and covered with a covering soil layer of about 1 cm. The pots were then cultivated in a greenhouse (12-16 h of light, temperature day 20-22° C., night 15-18° C.) until the time of application. The pots were treated at various BBCH stages between 11-25 of the seeds/plants, i.e. generally between two to three weeks after the start of the cultivation, on a laboratory track sprayer with spray liquors comprising the compositions according to the invention, mixtures or components used individually, as WG, WP, EC or other formulations. The application rate for the spray application was 100-600 l of water/ha. After the treatment, the plants were returned to the greenhouses and, when required, treated with fertilizer and watered. • 3. Selective pre-emergence action: seeds of various crop species (origins) were sown in a 8-13 cm diameter pot filled with natural soil of a standard field soil (loamy silt; non-sterile) and covered with a covering soil layer of about 1 cm. The pots were then cultivated in a greenhouse (12-16 h of light, temperature day 20-22° C., night 15-18° C.) until the time of application. The pots were treated at the BBCH stage 00-10 of the seeds/plants on a laboratory track sprayer with spray liquors comprising the compositions according to the invention, mixtures or components used individually, as WG, WP, EC or other formulations. The application rate for the spray application was 100-600 l of water/ha. […]

The test system of data set [2] is MATCH resistant (Matricaria chamomilla). Described as above. To be noted: resistant biotype, g of AS/ha: (A) 90, (B) 1200, (A)+(B) 90 + 1200, (C) 10. The protocol:
as §1, §2, §3

Data set [3] relates to ALOMY resistant (Alopecurus myosuroides). The data set is described as above. To be noted: resistant biotype, g of AS/ha: (A) 90, (B) 1200, (A)+(B) 90 + 1200. The protocol: as §1, §2, §3
Data set [4] deals with MATCH sensitive (Matricaria chamomilla). Described as above. To be noted: sensitive biotype, g of AS/ha: (A) 90, (B) 1200, (A)+(B) 90 + 1200, (C) 10. The protocol:
as §1, §2, §3

Data set [5] has as its system HORVS = Hordeum vulgare, summer barley. Put plainly: Greenhouse trial, selective post-emergence (PO) action on crop plant (test method 4). To be noted: PO application, g of AS/ha: (A) 120, (B) 1200, (A)+(B) 120 + 1200, about 3 weeks after application. The protocol: as §1
About 3 weeks after the application, the soil action or/and foliar action was assessed visually according to a scale of 0-100% in comparison to an untreated comparative group: 0%=no noticeable effect compared to the untreated comparative group; 100%=full effect compared to the untreated comparative group. […]

Another data set has as its system AVEFA = Avena fatua. Put plainly: Greenhouse trial, pre-sowing application 7 days prior to sowing (test method 5). To be noted: g of AS/ha: (A) 90, (B) 1200, (A)+(B) 90 + 1200. The protocol: as §1, §2
(§4) (notes: the term “seeds” also includes vegetative propagation forms such as, for example, rhizome pieces; abbreviations used: h light=hours of illumination, g of AS/ha=gram of active substance per hectare, l/ha=liter per hectare, S=sensitive, R=resistant) • 1. Pre-emergence action against weeds: seeds of various broad-leaved weed and weed grass biotypes (origins) were sown in a 8-13 cm diameter pot filled with natural soil of a standard field soil (loamy silt; non-sterile) and covered with a covering soil layer of about 1 cm. The pots were then cultivated in a greenhouse (12-16 h of light, temperature day 20-22° C., night 15-18° C.) until the time of application. The pots were treated at the BBCH stage 00-10 of the seeds/plants on a laboratory track sprayer with spray liquors comprising the compositions according to the invention, mixtures or components used individually, as WG, WP, EC or other formulations. The application rate for the spray application was 100-600 l of water/ha. After the treatment, the plants were returned to the greenhouses and, when required, treated with fertilizer and watered. • 2. Post-emergence action against weeds: seeds of various broad-leaved weed and weed grass biotypes (origins) were sown in a 8-13 cm diameter pot filled with natural soil of a standard field soil (loamy silt; non-sterile) and covered with a covering soil layer of about 1 cm. The pots were then cultivated in a greenhouse (12-16 h of light, temperature day 20-22° C., night 15-18° C.) until the time of application. The pots were treated at various BBCH stages between 11-25 of the seeds/plants, i.e. generally between two to three weeks after the start of the cultivation, on a laboratory track sprayer with spray liquors comprising the compositions according to the invention, mixtures or components used individually, as WG, WP, EC or other formulations. The application rate for the spray application was 100-600 l of water/ha. After the treatment, the plants were returned to the greenhouses and, when required, treated with fertilizer and watered. • 3. […]

Data set [6] concerns MATCH = Matricaria chamomilla. The data set is described as above. To be noted: g of AS/ha: (A) 90, (B) 1200, (A)+(B) 90 + 1200. The protocol: as §1, §2, §4
Data set [7] has as its system HORVW = Hordeum vulgare, winter barley. Described as above. To be noted: g of AS/ha: (A) 90, (B) 1200, (A)+(B) 90 + 1200. The protocol:
as §1, §2, §4

On to `CCC(CC)Nc1c([N+](=O)[O-])cc(C)c(C)c1[N+](=O)[O-]` [(B) pendimethalin, N-(1-ethylpropyl)-3,4-dimethyl-2,6-dinitrobenzenamine], for which the “activity ALOMY sensitive (visual assessment, scale 0-100% vs untreated)” value in data set [1] was determined as 30%. For the same compound, in data set [2], the “activity MATCH resistant (visual assessment, scale 0-100% vs untreated)” value came out at 10%. In data set [3], the “activity ALOMY resistant (visual assessment, scale 0-100% vs untreated)” value was found to be 40%. Besides, the “activity MATCH sensitive (visual assessment, scale 0-100% vs untreated)” value in data set [4] was 10%. For the same compound, the “activity on crop plant HORVS (visual assessment, scale 0-100% vs untreated)” value in data set [5] is 10%. Also, the “activity AVEFA (visual assessment, scale 0-100% vs untreated)” value in the data set with AVEFA = Avena fatua stood at 70%. The “activity MATCH (visual assessment, scale 0-100% vs untreated)” value in data set [6] is 0%. Moreover, the “activity on crop plant HORVW (visual assessment, scale 0-100% vs untreated)” value in data set [7] is 40%.
